Tests used:
Caco-2 cells [1] = test: Western blot of phospho-PKC-b2 in Caco-2 cells; assay type: cell-based, human; conditions: BFGF or PDGF
Method: To examine expression of any of Cox-1, Cox-2, phospho-PKC-2, GAPDH, E2F1, Cyclin D1, Cyclin E, and iNOS proteins, Western blot analyses were carried by known methods (15). Equal amounts of protein from cell extracts were subjected to 12% SDS-PAGE followed by transfer of proteins to nitrocellulose filters, probing with the indicated antibodies, and the antigen-antibody complex was detected by enhanced chemiluminescence (Pierce, Piscataway, N.J., USA).

Caco-2 cells [2] = test: Flowcytometric cell cycle analysis, Caco-2; assay type: cell-based, human; conditions: sorbinil 20 μM
Method: The Caco-2 and A549 cells were grown separately in 6 well plates at a density of approximately 1.5×10^5 cells/well. Growth-arrested Caco-2 cells were pre-incubated with or without sorbinil 20 μM or carrier for 24 h and then stimulated with either 10 ng/ml BFGF or PDGF for another 24 h. After 24 hrs A549 cells were incubated with or without sorbinil at different concentrations for another 24 h.
The Caco-2 and A549 cells were then washed with PBS and harvested by trypsinization. Cellular DNA was stained with low and high salt solutions. Briefly, cells were resuspended in 250 μl of solution A, low salt stain, containing polyetheleneglycol (30 mg/ml), propidium iodide (0.05 mg/ml), triton-x-100 (1 μl/ml), sodium citrate 4 mM, RNAse A 10 μg/ml and incubated at 37° C. for 20 min followed by the addition of 250 μl of solution B, high salt stain containing 400 mM NaCl instead of 4 mM sodium citrate in solution A, and incubated overnight at 4° C. Cell cycle analysis was performed with a minimum of 10,000 events per analysis by using FACScan flow cytometer (Becton, Dickinson and Co., San Jose, Calif., USA).

isolated mouse hearts = test: Isolated mouse hearts (Langendorff preparation) challenged with LPS; conditions: perfusion with sorbinil in the presence of LPS
RAW264.7 macrophages = test: LPS- and lipid aldehyde-induced signaling in RAW264.7 macrophages; assay type: cell-based; set-up: HNE and protein-HNE adduct levels: dose or concentration left out as unconfirmed
Method: At the indicated times, cells were harvested for measurement of HNE (FIG. 5A), protein-HNE adducts (FIG. 5B), NF-kB (FIG. 5C), and TNF-a and IL-6 (FIG. 5D) as described in the methods. Cells were growth arrested as described above or transfected with control or AR siRNA oligonucleotides, incubated with GS-HNE-ester, or GS-DHN-ester (1 mM), and harvested for determination of NF-kB (FIG. 5E), membrane-bound total PKC (FIG. 5F).
To determine if GS-DHN serves as a cellular sensor of ROS-induced insults, its effects on phosphorylation events upstream of IKK/NF-κB activation in RAW264.7 macrophages was examined.

Caco-2 cells [3] = test: Cox-2 mRNA RT-PCR in Caco-2 cells; assay type: cell-based, human; conditions: sorbinil 24 h, growth factor 3 h
Method: Total RNA was isolated from Caco-2 cells by using Rnaeasy micro isolation kit (Qiagen). Total RNA (1.5 μg) sample was reverse transcribed with Omniscript and Sensiscript reverse transcriptase one-Step RT PCR system with HotStarTaq DNA polymerase (Qiagen) at 55° C. for 30 min followed by PCR amplification. The oligonucleotide primer sequences were as follows: 5′-[…]-3′ (sense; SEQ ID NO: 4) and 5′-[…]-3′ (antisense; SEQ ID NO: 5) for Cox-2, and 5′-[…]-3′ (SEQ ID NO: 6) and 5′-[…]-3′ (SEQ ID NO: 7) for β-actin. PCR reaction was carried out in a GeneAmp 2700 thermocycler (Applied Biosystems, Foster City, Calif.) under the following conditions: initial denaturation at 95° C. for 15 min; 35 cycles of 94° C. 30 s, 62° C. 30 s, 72° C. 1 min, and then 72° C. 5 min for final extension (57). PCR products were electrophoresed in 2% Agarose-1™ TAE gels containing 0.5 μg/ml ethidium bromide.

Caco-2 cells [4] = test: Cyclooxygenase activity assay in Caco-2 cells; assay type: cell-based, human; set-up: dose or concentration left out as unconfirmed; conditions: 24 h
Method: For determination of Cox activity growth-arrested Caco-2 cells were treated with either 10 ng/ml BFGF or PDGF in the absence and presence of sorbinil […] for 24 h. The cells were harvested and homogenized in cold (4° C.) buffer containing 0.1M Tris-Hcl, pH 7.8 and 1 mM EDTA and the activity was measured in 96 well plate according to the manufacturer's (Cayman Chemical Co., Inc.) instructions. Briefly, 10 μl of standard/sample were incubated in the presence of arachidonic acid and substrate, N,N, N,N-tetra methyl-p-phenylenediamine (TMPD) in a total reaction volume of 210 μl. The Cox peroxidase activity was measured colorimetrically by monitoring appearance of oxidized TMPD at 590 nm by using ELISA reader.

rat VSMC cells = test: High glucose-induced TNF-a production in VSMC; assay type: cell-based
Method: Growth-arrested VSMC in 5.5 mM glucose (NG) were preincubated for 1 h without or with apocyanin (25 mM), D609 (100 mM), calphostin C (0.2 mM), N-acetyl cysteine (10 mM) and NF-kB inhibitor (18 mM) (FIG. 4A) and without or with sorbinil or tolrestat (10 mM each) (FIG. 4B) followed by the addition of glucose (19.5 mM) and incubation for the indicated times. AR antisense ablated VSMC were incubated with HG for the indicated times (FIG. 4C).
Growth-arrested VSMC in 5.5 mM glucose (NG) were preincubated for 1 h without or with apocyanin (25 mM), D609 (100 mM), calphostin C (0.2 mM), N-acetyl cysteine (10 mM) and NF-kB inhibitor (18 mM) respectively, followed by the addition of 19.5 mM glucose, after which the cells were incubated for 12 and 24 hrs.

(S)-6-fluorospiro[chroman-4,4′-imidazolidine]-2,5′-dione [sorbinil]
attenuation of increase in PKC-β2 phosphorylation (Caco-2 cells [1]): > 70% | percentage of cells in G1 (Caco-2 cells [2]; Control): 54.97% | percentage of cells in G2 (Caco-2 cells [2]; Control): 5.32% | percentage of cells in S (Caco-2 cells [2]; Control): 39.71% | percentage of cells in G1 (Caco-2 cells [2]; FGF): 36.31% | percentage of cells in G2 (Caco-2 cells [2]; FGF): 1.54% | percentage of cells in S (Caco-2 cells [2]; FGF): 52.15% | percentage of cells in G1 (Caco-2 cells [2]; PDGF): 36.18% | percentage of cells in G2 (Caco-2 cells [2]; PDGF): 12.10% | percentage of cells in S (Caco-2 cells [2]; PDGF): 51.71% | time to maximal ±dP/dt, coronary perfusion pressure, coronary vascular resistance, heart rate (isolated mouse hearts): unaffected | left ventricular pressure (LVP), +dP/dtmax and −dP/dtmax (isolated mouse hearts; compared to vehicle): significantly increased | HNE and protein-HNE adduct levels (RAW264.7 macrophages): increased | ability of GS-DHN to activate NF-κB (RAW264.7 macrophages): had no effect | effects of HNE/GS-HNE on IKK-a/b phosphorylation and NF-kB translocation (RAW264.7 macrophages): significantly blunted | LPS-induced NF-κB and cytokine activation (RAW264.7 macrophages; LPS 1 mg/ml, sorbinil 10 mM): significantly decreased | prevention of BFGF or PDGF-induced Cox-2 mRNA levels (Caco-2 cells [3]): 55-65% | BFGF and PDGF-induced Cox activity (Caco-2 cells [4]): abolished | basal levels of TNF-a (rat VSMC cells; media containing 5.5 mM glucose, mannitol, or 3-OMG): did not affect | high glucose-induced TNF-a secretion (rat VSMC cells; preincubated 1 h, then 19.5 mM glucose, apocyanin 25 mM, calphostin C 0.2 mM, N-acetyl cysteine 10 mM, sorbinil or tolrestat 10 mM each, or AR antisense ablated): prevents
